Experimental data reported in patent US6805816B1, “Method of producing π-conjugated polymers” (Bayer Aktiengesellschaft, priority 1999, dated 2004).
Converted amounts (≈) assume the structure as drawn.

Columns and labels:
[1] = physchem
Description: The cyclodextrin employed was in each case 2,6-dimethyl-β-cyclodextrin.

[2] = Stability: discoloration in air; settings: Monomer alone; in air after only a few hours

increase of water solubility [1]	solubility ([1]; 20 °C, water) [µg/mL]	Compound	Stability [2]
more than 30 fold	2100 (≈ 14.8 mM)	c1scc2c1OCCO2 [EDT, 3,4-ethylenedioxythiophene]	
		c1cc[nH]c1 [Pyrrole, pyrrole]	Pyrrole: discoloration
